Measured values from article PMC10063614, “Turning universal O into rare Bombay type blood” (Nature Communications, 2023).

Biological target: T1, FucOB (Amuc_1120), α-1,2-L-Fucosidase O to Bombay (Akkermansia muciniphila, UniProt B2UR61)
T1 construct: signal peptide (residues 1-23) removed, additional N-terminal 17-residue peptide with His tag; pET29a, E. coli BL21(DE3); monomer in crystal
Test: released fucose by L-fucose dehydrogenase/NADPH assay
Assay type: biochemical
Details: 20 mM Tris-HCl pH 6.8, 37 °C, 30 min; enzyme:substrate 1:100,000

T1 sequence (B2UR61 entry or part of it): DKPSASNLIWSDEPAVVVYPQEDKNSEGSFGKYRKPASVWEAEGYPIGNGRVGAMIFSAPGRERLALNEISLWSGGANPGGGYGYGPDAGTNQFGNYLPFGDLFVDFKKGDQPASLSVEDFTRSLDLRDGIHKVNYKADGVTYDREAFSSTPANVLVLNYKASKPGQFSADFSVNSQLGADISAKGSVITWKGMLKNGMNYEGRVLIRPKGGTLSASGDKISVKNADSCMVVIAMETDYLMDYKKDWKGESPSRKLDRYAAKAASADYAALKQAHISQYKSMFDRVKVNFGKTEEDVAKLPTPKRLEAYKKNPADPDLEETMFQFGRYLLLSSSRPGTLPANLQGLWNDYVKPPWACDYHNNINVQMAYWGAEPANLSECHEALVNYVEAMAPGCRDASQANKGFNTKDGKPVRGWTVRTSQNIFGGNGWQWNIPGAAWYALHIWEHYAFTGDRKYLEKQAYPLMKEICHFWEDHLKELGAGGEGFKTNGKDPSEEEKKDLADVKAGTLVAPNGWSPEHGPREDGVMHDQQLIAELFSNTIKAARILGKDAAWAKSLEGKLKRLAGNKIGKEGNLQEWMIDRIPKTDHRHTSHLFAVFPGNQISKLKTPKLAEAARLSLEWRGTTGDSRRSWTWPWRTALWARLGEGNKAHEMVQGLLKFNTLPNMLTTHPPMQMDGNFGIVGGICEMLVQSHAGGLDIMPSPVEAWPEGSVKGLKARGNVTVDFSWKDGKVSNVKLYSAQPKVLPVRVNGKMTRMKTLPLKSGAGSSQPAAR

Structure (SMILES) | released fucose by L-fucose dehydrogenase/NADPH assay
C[C@@H]1O[C@@H](O[C@H]2[C@H](O[C@H]3[C@H](O)[C@@H](O)C(O)O[C@@H]3CO)O[C@H](CO)[C@H](O)[C@@H]2O)[C@@H](O)[C@H](O)[C@@H]1O (some centres unmarked) [2’-fucosyllactose] | FucOB hydrolyzes all three types of H antigen structures to obtain the afucosylated Bombay phenotype
CC(=O)N[C@H]1C(O)O[C@H](CO)[C@@H](O[C@@H]2O[C@H](CO)[C@H](O)[C@H](O)[C@H]2O[C@@H]2O[C@@H](C)[C@@H](O)[C@@H](O)[C@@H]2O)[C@@H]1O (some centres unmarked) [blood group H antigen triaose type II] | FucOB hydrolyzes all three types of H antigen structures to obtain the afucosylated Bombay phenotype
